US5955423A (priority 1995, dated 1999)
Read-outs that look alike come from different tables or passages of the source.

Assays:
[1] = tested on: SKOV3 cells (human ovarian carcinoma); test: Cell proliferation assay (SRB staining), SKOV3 cells; format: cell-based; conditions: SKOV3 cells treated 24 hours with IC50 doses, then drug-free medium
[2] = tested on: murine leukemia (L1210 or P388), murine solid tumor, human solid tumor and low malignancy fibroblast (LML) cells; conditions: for Differential in Zone Units, Corbett Assay: μg/disk as for E3; for Type of Cytotoxicity, Corbett Assay: μg/disk: 1 12.5, 2 25, 3 25, 4 20, 5 2.9, 6 250, 8 30, 5-FU 2.5, VP-16 5, taxol 0.2, ^c selective against drug-sensitive and drug-resistant cell lines, ^d drug-sensitive cell lines only
[3] = tested on: KB (human nasopharyngeal carcinoma) cell line; test: Cytotoxicity against KB cell line; format: cell-based
[4] = tested on: LoVo (human colon-carcinoma) cell line; test: Cytotoxicity against LoVo cell line; format: cell-based
[5] = tested on: Colon 38 (colon adenocarcinoma #38)
Method: (§1) Gross log kill is defined as T-C/3.2 Td where T is the median time in days for the tumors of the treated group to reach 750 mg, C is the median time in days for the tumors of the control group to reach 750 mg, and Td is the tumor volume doubling time.

[6] = tested on: Panc 03 (pancreatic ductal adenocarcinoma #03, P03); conditions: SC P03
Method: as §1

[7] = tested on: murine and human tumors implanted in mice; conditions: for lethal toxicity observed during testing: in vivo testing
Method: as §1

[8] = tested on: Colon 51 (colon adenocarcinoma #51); test: In vivo activity, SC Colon 51 tumor
Method: as §1

Mam 16/C (mammary #16/C) = test: In vivo activity, SC Mam 16/C tumor
Method: as §1

[9] = tested on: SKOV3 (human ovarian carcinoma) cell line; test: Cytotoxicity against SKOV3 cell line; conditions: Table 2
[10] = tested on: A-10 rat aortic smooth muscle cells; format: cell-based; conditions: A-10 cells
Method: A-10 cells were grown to near-confluency on glass coverslips in BME/10% FBS. Compounds in PBS were added to the indicated final concentrations and cells were incubated for an additional 24 hours. For the staining of microtubules and intermediate filaments, the cells were fixed with cold methanol and incubated with PBS containing 10% calf serum to block nonspecific binding sites. Cells were then incubated at 37° C. for 60 min with either monoclonal anti-p-tubulin or with monoclonal anti-vimentin at dilutions recommended by the manufacturer. Bound primary antibodies were subsequently visualized by a 45-minute incubation with fluorescein-conjugated rabbit antimouse IgG. The coverslips were mounted on microscope slides and the fluorescence patterns were examined and photographed using a Zeiss Photomicroscope Ill equipped with epifluorescence optics for fluorescein. […] PBS containing 100 nM TRITC-phalloidin was then added and the mixture was allowed to incubate for 45 min at 37° C. The cells were washed rapidly three times with PBS before the coverslips were mounted and immediately photographed as described above.
After 24 hours, microtubules and vimentin intermediate filaments were visualized by indirect immunofluorescence and microfilaments were stained using TRITC-phalloidin. The morphological effects of each drug were examined.
After 24 hours, microtubule organization was examined by immunofluorescence as described above.
The cells were then washed and incubated in drug-free medium for periods of 1 hour or 24 hours.

H125 Human Adenosq-lung = conditions: Exp # 1823; SC H125 Human Adenosq-lung, SCID mice; 8 inj. IV; total dose 14.4 mg/kg
Method: as §1

strains of Cryptococcus = conditions: found by researchers at Merck; cited from earlier work
MX-1 Human Breast = test: In vivo activity, SC MX-1 tumor; conditions: Exp # 1806; SC MX-1 Human Breast, SCID mice; 8 inj. IV; total dose 12 mg/kg
Method: as §1

M17/0 (Adr. Sens.) = test: In vivo activity, SC M17/0 tumor; conditions: Exp # 1833; SC M17/0 (Adr. Sens.); 5 inj. IV; total dose 5.4 mg/kg
Method: as §1

LNCaP Human Prostate = test: In vivo activity, SC LNCaP tumor; conditions: Exp # 1841, 6 inj. IV, total dose 6.5 mg/kg
Method: as §1

[11] = tested on: Human Sm Cell L. DMS273 SCID; test: In vivo activity, SC DMS273 tumor; conditions: Exp # 1596, 6 inj. IV, total dose 7.3 mg/kg
Method: as §1

[12] = tested on: Mam 16/Taxol (taxol-resistant mammary #16/C/RP); test: In vivo activity, SC Mam 16/Taxol tumor; conditions: Exp # 1733, 5 inj. IV, total dose 16.5 mg/kg
Method: as §1

[13] = Exp # 1769, SC C38, 15 inj. IV, 45 mg/kg TD
[14] = Exp # 1887B, SC C38, 6 inj. IV, 30 mg/kg TD
[15] = Exp # 1825, 11 inj. IV, 106 mg/kg TD
[16] = Exp # 1900, 9 inj. IV, 67.5 mg/kg TD
[17] = Exp # 1885, 7 inj. IV, 21.3 mg/kg TD
[18] = Exp # 1843, 7 inj. IV, 23 mg/kg TD
[19] = 24 hours, 2 μM cytochalasin B, 100 nM vinblastine or 10 nM cryptophycin compounds
[20] = Exp # 1560, SC Colon 38, 8 inj. IV, total dose 10.3 mg/kg
[21] = Exp # 1636, 7 inj. IV, total dose 28.1 mg/kg
[22] = Exp # 1720, 5 inj. IV, total dose 13.2 mg/kg

For `CC(=O)O[C@H]1C(=O)[C@@]2(C)[C@H]([C@H](OC(=O)c3ccccc3)[C@]3(O)C[C@H](OC(=O)[C@H](O)[C@@H](NC(=O)c4ccccc4)c4ccccc4)C(C)=C1C3(C)C)[C@]1(OC(C)=O)CO[C@@H]1C[C@@H]2O` [taxol, reference compound], the “increase in cell number in the 24 hours following removal of the drug” value [1] was 0.2- to 0.4 fold, the “Differential in Zone Units, Corbett Assay” value (from here on “Differential in Zone Units”) [2] was no less than 400 Zone Units and the “Type of Cytotoxicity, Corbett Assay” value [2] was “M/H/T”.
For `COc1ccc(C[C@H]2NC(=O)/C=C/C[C@@H]([C@H](C)[C@@H](O)[C@@H](Cl)c3ccccc3)OC(=O)[C@H](CC(C)C)OC(=O)[C@H](C)CNC2=O)cc1Cl` [Cryptophycin 8], the “KB IC50” value ([3]; Table 1) was 0.0002 ng/mL, the “KB IC50” value ([3]; Table 2) was 0.01 ng/mL and the “LoVo IC50” value ([4]; Table 1) was 0.01 ng/mL. The “LoVo IC50” value ([4]; Table 2) was 0.0022 ng/mL, the “Differential in Zone Units” value [2] was greater than 500 Zone Units and the “Type of Cytotoxicity, Corbett Assay” value [2] was “E/T”. The “% Body Wt. Loss at Nadir” value [5, 13] was -2%, the Cures [5, 13] was 0/5 and the Cures [5, 14] was 1/5. The “Log Kill” value [5, 14] was 2.8, the T/C [5, 14] was 0% and the “% Body Wt. Loss at Nadir” value [6, 15] was -6%. For the same compound, the Cures [6, 15] was 0/5, the “Log Kill” value [6, 15] was 4.6 and the T/C [6, 15] was 4%. For the same compound, the “tumor burden T/C” value ([7]; all of the tumors tested to date) was less than 10%, the “lethal toxicity observed during testing” value [7] was “attributed to leucopenia” and the “gross log kill activity ratings” value ([7]; tumors implanted in mice) was “+++ to ++++”. The “% Body Wt. Loss at Nadir” value [8, 16] was -1%, the “Log Kill” value [8, 16] was 1.8 and the T/C [8, 16] was 7%. For the same compound, the “% Body Wt. Loss at Nadir” value (Mam 16/C (mammary #16/C); [17]) was -4.5%, the Cures (Mam 16/C (mammary #16/C); [17]) was 0/5 and the “Log Kill” value (Mam 16/C (mammary #16/C); [17]) was 2.5. For the same compound, the T/C (Mam 16/C (mammary #16/C); [17]) was 6% and the “SKOV3 IC50” value [9] was 0.15 ng/mL.
With `COc1ccc(CC2NC(=O)CCCC(C(C)C3OC3c3ccccc3)OC(=O)C(CC(C)C)OC(=O)C(C)CNC2=O)cc1Cl` (stereo not drawn) [Cryptophycin 35] the “KB IC50” value ([3]; Table 2) was 0.055 ng/mL, the “% Body Wt. Loss at Nadir” value [6, 18] was -2% and the Cures [6, 18] was 0/5. The “Log Kill” value [6, 18] was 1.3, the T/C [6, 18] was 11% and the “in vivo activity” value ([7]; the one trial that has been run to date) was “Good in vivo activity”. The “SKOV3 IC50” value [9] was 0.092 ng/mL.
For `CC[C@]1(O)C[C@@H]2CN(CCc3c([nH]c4ccccc34)[C@@](C(=O)OC)(c3cc4c(cc3OC)N(C)[C@H]3[C@@](O)(C(=O)OC)[C@H](OC(C)=O)[C@]5(CC)C=CCN6CC[C@]43[C@@H]65)C2)C1` [vinblastine], the “increase in cell number in the 24 hours following removal of the drug” value [1] was “approximately 3 fold”, the “reversibility of microtubule depolymerization after removal of drug” value ([10]; 100 nM vinblastine or 10 nM cryptophycins for 24 hr, then drug-free medium 1 hour or 24 hours) was “complete morphological recovery by 24 hour” and the “microtubule depolymerization after taxol pretreatment” value ([10]; 3 hours 10 μM taxol, then 100 nM vinblastine or 10 nM cryptophycin compound, 24 hours) was “pretreatment with taxol prevented microtubule depolymerization in response to vinblastine”. For the same compound, the effect on microfilaments [10, 19] was “Neither compound affected microfilament organization” and the “effect on vimentin intermediate filaments” value [10, 19] was “vimentin intermediate filaments collapsed”.
In the case of `C=C1[C@@H](C)[C@H]2[C@H](Cc3ccccc3)NC(=O)[C@]23OC(=O)/C=C/[C@H](O)CCC[C@@H](C)C/C=C/[C@H]3[C@@H]1O` [Cytochalasin B, cytochalasin B], the effect on microtubules [10, 19] is reported as “did not affect the distribution of either microtubules or intermediate filaments” and the “effect on vimentin intermediate filaments” value [10, 19] is reported as “did not affect the distribution of either microtubules or intermediate filaments”.
In the case of `COc1ccc(C[C@H]2NC(=O)/C=C/C[C@@H]([C@H](C)[C@H]3O[C@@H]3c3ccccc3)OC(=O)[C@H](CC(C)C)OC(=O)[C@H](C)CNC2=O)cc1Cl` [Cryptophycin 1], the “KB IC50” value ([3]; Table 1) is reported as 0.005 ng/mL, the “KB IC50” value ([3]; Table 2) is reported as 0.0025 ng/mL and the “LoVo IC50” value ([4]; Table 1) is reported as 0.003 ng/mL. The “LoVo IC50” value ([4]; Table 2) was 0.001 ng/mL, the “Differential in Zone Units” value [2] was greater than 400 Zone Units and the “Type of Cytotoxicity, Corbett Assay” value [2] was “E/T”. The Cures [5, 20] was 0/5, the “Log Kill” value [5, 20] was 1.5 and the T/C [5, 20] was 6%. The “% Body Wt. Loss at Nadir” value (H125 Human Adenosq-lung) was -15%, the Cures (H125 Human Adenosq-lung) was 0/5 and the “Log Kill” value (H125 Human Adenosq-lung) was 1.1. For the same compound, the T/C (H125 Human Adenosq-lung) was 9%, the dead (H125 Human Adenosq-lung) was 1/5 and the “tumor burden T/C” value ([7]; five early stage murine tumors (colon #38, #51, taxol-sensitive and taxol-resistant mammary #16/C/RP, pancreatic #03) and MX-1 breast, H125 lung in SCID mice) was “less than 10%”. The “lethal toxicity observed during testing” value [7] was “attributed to leucopenia”, the “activity against strains of Cryptococcus” value (strains of Cryptococcus) was “very active against strains of Cryptococcus” and the “% Body Wt. Loss at Nadir” value (MX-1 Human Breast) was -3%. For the same compound, the Cures (MX-1 Human Breast) was 0/5, the “Log Kill” value (MX-1 Human Breast) was 2.0 and the T/C (MX-1 Human Breast) was 3%. For the same compound, the “% Body Wt. Loss at Nadir” value (M17/0 (Adr. Sens.)) was -10%, the “Log Kill” value (M17/0 (Adr. Sens.)) was less than 1 and the T/C (M17/0 (Adr. Sens.)) was 23%. The “% Body Wt. Loss at Nadir” value (LNCaP Human Prostate) was -6%, the T/C (LNCaP Human Prostate) was 26% and the “% Body Wt. Loss at Nadir” value [11] was 0%. For the same compound, the Cures [11] was 0/5, the “Log Kill” value [11] was less than 1 and the T/C [11] was 27%. For the same compound, the “% Body Wt. Loss at Nadir” value [8, 21] was -11%, the “Log Kill” value [8, 21] was 1.3 and the T/C [8, 21] was 7%. The “% Body Wt. Loss at Nadir” value (Mam 16/C (mammary #16/C); [22]) was -1%, the Cures (Mam 16/C (mammary #16/C); [22]) was 0/5 and the “Log Kill” value (Mam 16/C (mammary #16/C); [22]) was 1.4. The T/C (Mam 16/C (mammary #16/C); [22]) was 5%, the “SKOV3 IC50” value [9] was 0.026 ng/mL and the “% Body Wt. Loss at Nadir” value [12] was 0%. The “Log Kill” value [12] was 1.8 and the T/C [12] was 2%.
